Read-outs that look alike come from different tables or passages of the source.

Assay [1] addresses T1, muscarinic M3 receptor (Rattus norvegicus, UniProt P08483). Put plainly: Intestinal propulsion in rats (charcoal meal). The class given is in vivo. Details: from tissue. The settings on record: i.v., 15% inhibition of intestinal propulsion. As to the method:
(§1) Tests for antagonism against muscarinic M3 receptor (in vivo)
5) Tests for intestinal propulsion in rats
Five- to seven-weeks-old male rats of the Sprague-Dawley strain were fasted overnight. A test compound was administered intravenously to the animals. Five minutes later, 1 ml per animal of a 5% charcoal suspension was administered orally. Thirty minutes after administration of the charcoal meal, the rats were sacrificed by decapitation, and the gastrointestinal tract was removed. The distance from the pylorus to the point of arrival of the charcoal meal was measured and the transportation rate was calculated. The ID15 value was calculated from the dose-response curve using probit analysis and defined as the drug dose that inhibited intestinal propulsion in the control group by 15%.

Assay [2] concerns the target T1, muscarinic M3 receptor. Put plainly: in vivo. Details: from tissue; host or cells: living rat, airways. The settings on record: iv, read-out: Mydriasis ED50. As to the method: as §1
3) Tests for mydriasis in rats
Five- to seven-weeks-old male rats of the Sprague-Dawley strain were anesthetized with pentobarbital (65 mg/kg, i.p.), and a cannula was inserted into the right jugular vein for purposes of drug administration. By using a graduated scale (pulilometer), pupillary responses to drugs were measured to the nearest 0.1 mm at the point of the greatest diameter. […] Responses were expressed as percentages of the maximal increase in pupil diameter induced by administration of atropine (30 μg/kg, i.v.). The ED50 value was calculated from the dose-response curve of the test compound using probit analysis and defined as the drug dose that induced 50% of the maximal response.

The test system of assay [3] is muscarinic M3 receptor. Put plainly: in vivo. The settings on record: rat, i.v., Table 3. As to the method:
as §1
(§2) 1) Tests for bronchodilation in rats
(§3) Eight- to eleven-weeks-old male rats of the Sprague-Dawley strain, weighing 300-400 g, were anesthetized with urethane (750 mg/kg, i.p.) and a-chloralose (37.5 mg/kg, i.p.). A bronchus was intubated, and the right jugular vein was cannulated for drug administration. […] To evoke an increase in airway resistance, acetylcholine (50 μg/kg, i.v.) was administered to the animals. Mean values for the acetylcholine-induced increase in airway resistance as measured five minutes before (control) and five minutes after test compound administration were calculated and the results were expressed as percentages of the control response. The ID50 value was calculated from the dose-response curve of the test compound using probit analysis and defined as the drug dose that inhibited the acetylcholine-induced increase in airway resistance in the control group by 50 %.

The target in assay [4] is T1, muscarinic M3 receptor. Description: Intravesical bladder pressure in rats. In kind it is in vivo. Also noted: from tissue. As to conditions: i.v., 25% inhibition of peak intravesical bladder pressure. As to the method:
as §1
4) Tests for intravesical bladder pressure in rats
These tests were performed according to the method of Maggi et al. (Drug Dev. Res. 10: 157-170, 1987). Briefly, eight- to ten-weeks-old male rats of the Sprague-Dawley strain, weighing 330-370 g, were anesthetized by subcutaneous administration of urethane (1 g/kg) and α-chloralose (50 mg/kg), and the right jugular vein was cannulated for drug administration. The body temperature was kept constant by means of a heating pad maintained at 37° C. Through a midline incision of the abdomen, the urinary bladder was exposed and emptied of urine by the application of a slight manual pressure. A 20-gauge needle was inserted through the apex of the bladder dome by 3-4 mm into its lumen. The needle had previously been connected to a pressure transducer and an infusion pump by means of polyethylene tubing and the whole system filled with saline. After a 30-minutes equilibration period at zero volume, saline was infused (2.8 ml/hr) until a coordinated sustained contraction, reflecting the peak intravesical bladder pressure, occured. The bladder was then emptied manually and allowed to rest for five minutes. PvesP was defined as the difference between the maximum and resting bladder pressures. This procedure was repeated at least five times and the evaluation of a test compound was carried out in the animals in which a stable peak intravesical bladder pressure was recorded. The drug potency (ID25 ) was determined after intravenous administration of the test compound during the rest period. Five minutes after drug administration, the infusion of saline was started to induce micturition contraction and the peak intravesical bladder pressure was recorded. The depression in peak intravesical bladder pressure was expressed as a percent of the control peak intravesical bladder pressure observed before administration of the test compound. The ID25 value, calculated by probit analysis, was defined as the drug dose that inhibited the control peak intravesical bladder pressure by 25%.

For assay [5], the target named is T1, muscarinic M3 receptor. Description: in vivo. Details: from tissue; host or cells: living rat, airways. As to conditions: iv, 5 min, read-out: Airway contraction ID50. As to the method: as §1, §2, §3
The target of assay [6] is T1, muscarinic M3 receptor. Description: in vivo. Details: from tissue; host or cells: living rat, airways. As to conditions: iv, read-out: Salivary secretion ID50. As to the method:
as §1
2) Tests for salivary secretion in rats
Five- to seven-weeks-old male rats of the Sprague-Dawley strain were anesthetized with sodium pentobarbital (65 mg/kg, i.p.), and a cannula was inserted into the right jugular vein for purposes of drug administration. A test compound was administered intravenously. Five minutes later, carbachol (10 μg/kg, i.v.) was administered to evoke salivary secretion. For each rat, saliva collection was started immediately after carbachol administration and continued for ten minutes. This was carried out by inserting glass capillaries (Drummond, 100 μl) into the oral cavity of the rat at intervals of one minute. The amount of collected saliva was determined on the assumption that a length of 75 mm of the glass capillary corresponded to 100 μl. Physiological saline was used in the control group. The ID50 value was calculated from the dose-response curve of the test compound using probit analysis and defined as the drug dose that inhibited the carbachol-induced salivation in the control group by 50%.

A further assay addresses T2, muscarinic M2 receptors (Rattus norvegicus, UniProt P10980).
T2 construct: a membrane specimen from the heart was used as the membrane specimen; from tissue; host or cells: rat heart membranes (SD rat)
T2 sequence (P10980 1-466): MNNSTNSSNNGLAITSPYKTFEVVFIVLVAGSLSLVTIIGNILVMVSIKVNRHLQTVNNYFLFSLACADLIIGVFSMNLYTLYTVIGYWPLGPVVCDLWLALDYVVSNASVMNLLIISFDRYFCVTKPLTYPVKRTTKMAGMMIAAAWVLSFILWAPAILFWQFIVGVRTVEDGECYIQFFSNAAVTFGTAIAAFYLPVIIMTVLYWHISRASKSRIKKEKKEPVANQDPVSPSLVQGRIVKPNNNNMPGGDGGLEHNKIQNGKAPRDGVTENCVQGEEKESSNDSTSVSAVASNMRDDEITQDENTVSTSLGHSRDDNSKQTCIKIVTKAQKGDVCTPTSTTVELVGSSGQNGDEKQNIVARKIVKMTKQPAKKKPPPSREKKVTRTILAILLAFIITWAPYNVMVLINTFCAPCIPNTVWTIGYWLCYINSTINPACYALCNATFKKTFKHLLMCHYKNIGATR
Description: Bradycardia in rats (acetylcholine-induced). In kind it is in vivo. As to conditions: iv, 5 min, i.v., 5 minutes after administration, 50% inhibition of acetylcholine-induced bradycardia, read-out: Bradycardia ID50. As to the method: 6) Tests for bradycardia in rats
Eight- to eleven-weeks-old male rats of the Sprague-Dawley strain, weighing 300-400 g, were anesthetized with urethane (750 mg/kg, i.p.) and α-chloralose (37.5 mg/kg, i.p.). A bronchus was intubated, and the right jugular vein was cannulated for drug administration. […] To evoke bradycardia, acetylcholine (50 μg/kg, i.v.) was administered to the animals. Mean values for the acetylcholine-induced decrease in heart rate as measured five minutes before (control) and five minutes after test compound administration were calculated and the results were expressed as percentages relative to the control response. The ID50 value was calculated from the dose-response curve of the test compound using probit analysis and defined as the drug dose that inhibited the acetylcholine-induced bradycardia in the control group by 50%.

T1 sequence (P08483 whole entry): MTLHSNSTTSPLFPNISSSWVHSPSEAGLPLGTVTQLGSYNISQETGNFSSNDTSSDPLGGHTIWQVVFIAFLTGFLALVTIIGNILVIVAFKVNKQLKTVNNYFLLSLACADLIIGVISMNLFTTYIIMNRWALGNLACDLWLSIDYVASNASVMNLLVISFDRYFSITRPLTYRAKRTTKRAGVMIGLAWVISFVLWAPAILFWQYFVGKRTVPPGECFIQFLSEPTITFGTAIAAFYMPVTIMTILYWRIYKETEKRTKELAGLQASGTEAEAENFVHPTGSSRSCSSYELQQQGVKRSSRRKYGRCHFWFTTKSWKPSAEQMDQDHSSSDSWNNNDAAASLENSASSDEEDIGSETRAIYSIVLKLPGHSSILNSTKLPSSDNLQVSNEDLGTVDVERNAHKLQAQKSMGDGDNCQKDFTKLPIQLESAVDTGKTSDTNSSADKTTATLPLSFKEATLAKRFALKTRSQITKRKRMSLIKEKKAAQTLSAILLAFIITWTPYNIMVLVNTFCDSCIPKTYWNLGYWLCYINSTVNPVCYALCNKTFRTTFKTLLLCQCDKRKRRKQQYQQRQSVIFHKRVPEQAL

Consider `CN1[C@@H]2CC[C@H]1C[C@@H](OC(=O)C(CO)c1ccccc1)C2` (stereo partly shown) [Atropine], for which the “Enterokinesis ID15” value on muscarinic M3 receptor [1] is on record as 0.019 mg/kg i.v. Besides, the ED50 at muscarinic M3 receptor [2] amounted to 18 µg/kg; at muscarinic M3 receptor [5], 4.3 µg/kg; on muscarinic M3 receptor [6] it was 2.2 µg/kg; at muscarinic M2 receptors it was 3.7 µg/kg. Besides, in the assay on muscarinic M3 receptor [3], the “Activity with respect to all of the six types of responses (in words)” value is given as “potent activities”. In addition, the “Selectivity over the six types of responses (in words)” value with muscarinic M3 receptor [3] is “non-selective”. Besides, the “Urinating contraction ID25” value on muscarinic M3 receptor [4] is 0.027 mg/kg i.v.
On to `CC(C)[N+]1(C)[C@@H]2CC[C@H]1C[C@@H](OC(=O)C(CO)c1ccccc1)C2` (stereo partly shown) [Ipratropium], for which the “Enterokinesis ID15” value on muscarinic M3 receptor [1] was 0.004 mg/kg i.v. Besides, the ED50 turned out to be 4.1 µg/kg on muscarinic M3 receptor [2], 1.5 µg/kg at muscarinic M3 receptor [5], 1.8 µg/kg at muscarinic M3 receptor [6] and 1.8 µg/kg on muscarinic M2 receptors. In addition, the “Activity with respect to all of the six types of responses (in words)” value in the assay with muscarinic M3 receptor [3] is on record as “potent activities”. The “Selectivity over the six types of responses (in words)” value in the assay on muscarinic M3 receptor [3] is “non-selective”. In addition, the “Urinating contraction ID25” value at muscarinic M3 receptor [4] was 0.0048 mg/kg i.v.
